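Step 1: Grow cells in 96-well plates. Step 2: Expose to compound for 48 hours at 5 concentrations. Step 3: Interpolate endpoints linearly; if unreached, use highest concentration. Abbreviation: GI50, concentration required for 50% inhibition of growth.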 Calls of active or inactive are those of the source. No stated cut-off is given here; in the data, active = GI50 up to about 1.1 µM and inactive = higher.
Columns and labels:
Test in all cases: NCI tumour cell line growth inhibition, 48 h
[1] = tested on: OVCAR-8
[2] = tested on: NCI/ADR-RES
[3] = tested on: TK-10
[4] = tested on: HL-60
[5] = tested on: COLO 205
[6] = tested on: CAKI-1
[7] = tested on: ACHN
[8] = tested on: HCC 2998
[9] = tested on: NCI-H522
[10] = tested on: U-251
[11] = tested on: SNB-19
[12] = tested on: NCI-H460
[13] = tested on: RPMI-8226
[14] = tested on: A498
[15] = tested on: MCF7
[16] = tested on: RXF 393
[17] = tested on: HOP-92
[18] = tested on: UACC-62
[19] = tested on: NCI-H226
[20] = tested on: KM12

Row | Compound | GI50 [1] | GI50 [2] | GI50 [3] | GI50 [4] | GI50 [5] | GI50 [6] | GI50 [7] | GI50 [8] | GI50 [9] | GI50 [10] | GI50 [11] | GI50 [12] | GI50 [13] | GI50 [14] | GI50 [15] | GI50 [16] | GI50 [17] | GI50 [18] | GI50 [19] | GI50 [20]
1 | C/C1=C\[C@@H](C)C[C@@H](C)OC(=O)[C@@H](C)NC(=O)[C@H](Cc2ccc(O)c(Br)c2)N(C)C(=O)CNC(=O)[C@H](C)C1 | 0.137 µM (active) | 0.0366 µM (active) | < 0.0157 µM (active) | < 0.01 µM (active) | < 0.01 µM (active) | < 0.01 µM (active) | < 0.01 µM (active) | < 0.01 µM (active) | < 0.01 µM (active) | < 0.01 µM (active) | 0.295 µM (active) | < 0.01 µM (active) | < 0.01 µM (active) | < 0.0106 µM (active) | 0.182 µM (active) | < 0.0184 µM (active) | < 0.01 µM (active) |  |  | 
2 | O=S1(=O)C(c2ccccc2)C(N2CCCCC2)C1C1CC2c3ccccc3C1c1ccccc12 (stereo not drawn) | > 100 µM (inactive) | > 28 µM (inactive) | > 100 µM (inactive) | 2.86 µM (inactive) | 14.8 µM (inactive) | > 100 µM (inactive) | > 100 µM (inactive) |  | 9.95 µM (inactive) | > 85.1 µM (inactive) | > 100 µM (inactive) | 17.6 µM (inactive) | 4.5 µM (inactive) | > 100 µM (inactive) | 30.8 µM (inactive) | > 100 µM (inactive) | 8.81 µM (inactive) | > 100 µM (inactive) | > 100 µM (inactive) | 23.3 µM (inactive)
3 | C[C@H]1C(=O)O[C@@H]2CCN3CC=C(COC(=O)[C@](C)(O)[C@@]1(C)O)[C@H]23 | > 100 µM (inactive) | > 100 µM (inactive) | > 100 µM (inactive) | > 100 µM (inactive) | > 100 µM (inactive) | > 100 µM (inactive) | > 100 µM (inactive) | > 100 µM (inactive) | > 100 µM (inactive) | > 100 µM (inactive) | > 100 µM (inactive) | > 10 µM (inactive) | > 100 µM (inactive) | > 100 µM (inactive) | > 100 µM (inactive) |  | > 100 µM (inactive) | > 100 µM (inactive) | > 100 µM (inactive) | > 100 µM (inactive)
4 | O=C1CSC2(CC(/C=C/c3cccc([N+](=O)[O-])c3)=NN2c2cccc(S(=O)(=O)O)c2)N1c1nc2ccccc2s1 (stereo not drawn) | 13.8 µM (inactive) | 22.5 µM (inactive) | 20 µM (inactive) | 28.1 µM (inactive) | 50.8 µM (inactive) | 49.7 µM (inactive) | 25.8 µM (inactive) | 35.6 µM (inactive) | 18.3 µM (inactive) | 17.6 µM (inactive) | 21 µM (inactive) | 21.2 µM (inactive) | 17.4 µM (inactive) | 20.4 µM (inactive) | 17.6 µM (inactive) | 34.2 µM (inactive) | 9.46 µM (inactive) | 19.1 µM (inactive) | 25.4 µM (inactive) | 22 µM (inactive)
5 | COC(=O)[C@@H](NC1(c2ccccc2)c2ccccc2-c2ccccc21)[C@@H](C(=O)OC)N(NC(=O)OCc1ccccc1)C(=O)OCc1ccccc1.COC(=O)[C@@H](NC1(c2ccccc2)c2ccccc2-c2ccccc21)[C@H](C(=O)OC)N(NC(=O)OCc1ccccc1)C(=O)OCc1ccccc1 | > 100 µM (inactive) | > 100 µM (inactive) | > 100 µM (inactive) | > 100 µM (inactive) | > 100 µM (inactive) | > 100 µM (inactive) | > 100 µM (inactive) | 86.9 µM (inactive) | 29.2 µM (inactive) | 33.8 µM (inactive) | > 100 µM (inactive) | > 100 µM (inactive) | > 100 µM (inactive) | > 100 µM (inactive) | > 100 µM (inactive) | > 100 µM (inactive) | > 100 µM (inactive) | > 100 µM (inactive) |  | > 100 µM (inactive)
6 | O=c1[nH]c2ccccc2n1CCCN1CCC(n2c(=O)[nH]c3cc(Cl)ccc32)CC1 [DOMPERIDONE] | 18.3 µM (inactive) | 23.3 µM (inactive) | 20.2 µM (inactive) | 17.3 µM (inactive) | 12.7 µM (inactive) | 15.7 µM (inactive) | 18.8 µM (inactive) | 16.7 µM (inactive) | 15.4 µM (inactive) |  |  | 17.4 µM (inactive) | 20.1 µM (inactive) | 23 µM (inactive) | 18 µM (inactive) | 16 µM (inactive) | 22.2 µM (inactive) | 18.3 µM (inactive) | 24 µM (inactive) | 16.9 µM (inactive)
7 | Cn1c2ncccc2n2c(=O)cc(O)cc12 | > 100 µM (inactive) | 81.5 µM (inactive) | 45 µM (inactive) |  | 53 µM (inactive) | 32.4 µM (inactive) | > 100 µM (inactive) | 39.4 µM (inactive) | 44 µM (inactive) | > 100 µM (inactive) | > 100 µM (inactive) | 60.5 µM (inactive) | > 100 µM (inactive) | 64.7 µM (inactive) | 33.9 µM (inactive) | 21.1 µM (inactive) | 18.2 µM (inactive) | 77.3 µM (inactive) | 30.1 µM (inactive) | 65.8 µM (inactive)
8 | COC(=O)C1=COC2OC3CC1C2C(C)O3 (stereo not drawn) | > 100 µM (inactive) | > 100 µM (inactive) | > 100 µM (inactive) | > 100 µM (inactive) | > 100 µM (inactive) | > 100 µM (inactive) | > 100 µM (inactive) | > 100 µM (inactive) | > 100 µM (inactive) | > 100 µM (inactive) | > 100 µM (inactive) | > 100 µM (inactive) | > 100 µM (inactive) | > 100 µM (inactive) | > 100 µM (inactive) | > 100 µM (inactive) | > 100 µM (inactive) | > 100 µM (inactive) | > 100 µM (inactive) | > 100 µM (inactive)
9 | COc1ccc(-c2cc(O)c3c(C)cc(C)nc3n2)cc1 | 33.5 µM (inactive) | 33.4 µM (inactive) | 25.1 µM (inactive) | 15.8 µM (inactive) | 20.8 µM (inactive) | 22.9 µM (inactive) | 44.1 µM (inactive) | 43.2 µM (inactive) | 38.1 µM (inactive) |  | 49.4 µM (inactive) |  | 18 µM (inactive) | 30.5 µM (inactive) | 15.3 µM (inactive) | 49.7 µM (inactive) | 26.9 µM (inactive) | 18.4 µM (inactive) | 35 µM (inactive) | 34.8 µM (inactive)
10 | CS(=O)(=O)OCCn1c(=O)n(CCOS(C)(=O)=O)c(=O)n(CCOS(C)(=O)=O)c1=O | > 100 µM (inactive) | > 100 µM (inactive) | > 100 µM (inactive) | > 100 µM (inactive) | > 100 µM (inactive) | > 100 µM (inactive) | > 100 µM (inactive) | > 100 µM (inactive) |  | > 100 µM (inactive) | > 100 µM (inactive) | > 100 µM (inactive) | > 100 µM (inactive) | > 100 µM (inactive) | > 100 µM (inactive) | > 100 µM (inactive) |  | > 100 µM (inactive) | > 100 µM (inactive) | > 100 µM (inactive)
11 | Nc1nccc2c1ncn2[C@H]1C[C@H](O)[C@@H](CO)O1 | > 100 µM (inactive) | > 100 µM (inactive) | > 100 µM (inactive) |  | > 100 µM (inactive) | > 100 µM (inactive) |  | > 100 µM (inactive) |  | > 100 µM (inactive) | > 100 µM (inactive) | > 100 µM (inactive) | > 100 µM (inactive) | > 100 µM (inactive) | > 100 µM (inactive) | > 100 µM (inactive) | > 100 µM (inactive) | > 100 µM (inactive) | > 100 µM (inactive) | > 100 µM (inactive)
12 | O=C1Nc2ccccc2/C1=N/NC(=S)Nc1ccccc1Cl | 2.23 µM (inactive) | 0.384 µM (active) | 2.1 µM (inactive) | 4.44 µM (inactive) | 3.63 µM (inactive) | 3.8 µM (inactive) | 2.19 µM (inactive) | 34.7 µM (inactive) | 11.9 µM (inactive) | 3.56 µM (inactive) | 4.84 µM (inactive) | 0.735 µM (active) |  | 7.96 µM (inactive) | 3.4 µM (inactive) | 5.2 µM (inactive) | 3.7 µM (inactive) | 3.94 µM (inactive) | 10.1 µM (inactive) | 1.98 µM (inactive)
13 | COc1cc(-c2ccc(/N=N/c3c(S(=O)(=O)O)cc4cc(S(=O)(=O)O)cc(N)c4c3O)c(OC)c2)ccc1/N=N/c1c(S(=O)(=O)O)cc2cc(S(=O)(=O)O)cc(N)c2c1O | > 100 µM (inactive) | > 100 µM (inactive) |  | 29.9 µM (inactive) | > 100 µM (inactive) |  |  | > 100 µM (inactive) | > 100 µM (inactive) | > 100 µM (inactive) | > 100 µM (inactive) | > 100 µM (inactive) | > 100 µM (inactive) | > 100 µM (inactive) | > 100 µM (inactive) | > 100 µM (inactive) | 34 µM (inactive) |  | > 62.1 µM (inactive) | > 86.1 µM (inactive)
14 | COCO[C@@H]1C[C@H]2C(O)Nc3ccccc3C(=O)N2C1 (stereo partly drawn) | > 100 µM (inactive) | > 100 µM (inactive) | > 100 µM (inactive) | > 100 µM (inactive) | > 100 µM (inactive) | > 100 µM (inactive) | > 100 µM (inactive) | > 100 µM (inactive) |  | > 100 µM (inactive) | > 100 µM (inactive) | > 100 µM (inactive) | > 100 µM (inactive) | > 100 µM (inactive) | > 100 µM (inactive) | > 100 µM (inactive) | > 100 µM (inactive) | > 100 µM (inactive) | > 100 µM (inactive) | > 100 µM (inactive)
